In patent US20140228287A1, “1-[(3-CYANO-PYRIDIN-2-YL)METHYL]-3-METHYL-7-(2-BUTYN-1-YL)-8-[3-(R)-AMINO-PIPERIDIN-1-YL]-AXANTHINE FOR THE TREATMENT OF A METABOLIC DISORDER OF A PREDOMINANTLY CARNIVOROUS NON-HUMAN ANIMAL” (BOEHRINGER INGELHEIM VETMEDICA GMBH, priority 2010, published 2014):
Structures can show the parent of a compound that is named as a salt. Where two headings read alike, the source gives them in different places.

What was measured:
DPP IV [1] = target: T1, DPP IV (Felis catus, UniProt Q9N2I7); test: Exploratory single dose PK/PD (0.3/1.0/3.0 mg/kg) in cats: DPP IV activity; type: in vivo, cat; conditions: for response vs control in vivo at 0.3 mg/kg: 0.3 mg/kg single oral; for response vs control in vivo at 0.3 mg/kg / response vs control in vivo at 1 mg/kg / response vs control in vivo at 3 mg/kg: read-out: DPP IV activity in cat plasma (0 h = 100%); for response vs control in vivo at 1 mg/kg: 1 mg/kg single oral; for response vs control in vivo at 3 mg/kg: 3 mg/kg single oral
T1 construct: Blood samples for the determination of this compound and DPP IV activity were collected; from tissue; host or cells: plasma of domestic short hair / purpose-bred cats dosed orally
Experimental: The aim of this first study was to investigate the PK/PD of 1-[(3-cyano-pyridin-2-yl)methyl]-3-methyl-7-(2-butyn-1-yl)-8-[3-(R)-amino-piperidin-1-yl]-xanthine in the cat after a single oral administration of 0, 0.3, 1.0 and 3.0 mg/kg body weight. For this purpose, twelve male clinically healthy adult domestic short hair cats with a body weight range of 3.5-4.5 kg were used. All animals were treated once orally with placebo or the respective 1-[(3-cyano-pyridin-2-yl)methyl]-3-methyl-7-(2-butyn-1-yl)-8-[3-(R)-amino-piperidin-1-yl]-xanthine monohydrochloride dose formulation. Blood samples for the determination of this compound and DPP IV activity were collected at 0 (pre-dose), 0.5, 1, 2, 4, 8, 24, 36, 48, 72 and 96 hours after treatment and the activity of DPP IV was determined like in example 6.
The resulting pharmacodynamic data from this experiment are summarized in following Table 3; the value of 0 h was set to 100% for each treatment.

DPP IV [2] = target: T1, DPP IV; test: Exploratory single dose PK/PD (0.01/0.1/1.0 mg/kg) in cats: DPP IV activity; type: in vivo; conditions: read-out: DPP IV activity in cat plasma; for response vs control in vivo at 0.01 mg/kg: 0.01 mg/kg single oral; for response vs control in vivo at 0.1 mg/kg: 0.1 mg/kg single oral; for response vs control in vivo at 1 mg/kg: 1 mg/kg single oral
Experimental: The investigation of the PK/PD values was conducted in the same way as in Example 7, with the variations described below.
The aim of this study was to investigate the PK/PD of 1-[(3-cyano-pyridin-2-yl)methyl]-3-methyl-7-(2-butyn-1-yl)-8-[3-(R)-amino-piperidin-1-yl]-xanthine monohydrochloride in the cat after a single oral administration of 0, 0.01, 0.1 and 1.0 mg/kg body weight of this compound (dosages were based on the free base).
Eleven clinically healthy male adult domestic short hair cats with a body weight range of 3.5-5.0 kg were used in this study. All animals were treated orally once via a stomach tube. Blood samples were drawn at 0 h (i.e. prior to treatment), 30 min as well as 1, 2, 4, 8, 12, 24, 36, 48, 72 and 96 h after treatment and the activity of DPP IV was determined like in Example 6.

GLP-1 = test: OGTT in normal cats after 9 mg per cat: GLP-1 concentrations; type: in vivo; conditions: for GLP-1 concentration: 9 mg/cat oral, OGTT beginning 1 h after
Experimental: Cats were fasted overnight and then lightly tranquilized with tiletamine/zolazepam (2 mg per cat intravenously (Fort Dodge Animal Health, Ft. Dodge, Iowa, USA). Glucose was administered via gastric tube (2 g/kg body weight; 80% w/v) after a baseline blood sample had been obtained. […]
Glucose measurements were performed using a colorimetric glucose oxidase method (DCL, Oxford, Conn., USA). Plasma insulin was measured as described in Hoenig et al. (1989), J. Endocrinol., vol. 121, p. 249-251. The concentrations of active GLP-1 were measured with an ELISA kit from Linco (St. Charles, Mo., USA). All samples were tested in duplicate. […] The interassay coefficient of variation (CV) was 7.6%, and the intra-assay CV was 12.1%.
An OGTT like in Example 11 was performed in […] beginning 1 h after oral administration of 9 mg 1-[(3-cyano-pyridin-2-yl)methyl]-3-methyl-7-(2-butyn-1-yl)-8-[3-(R)-amino-piperidin-1-yl]-xanthine monohydrochloride or placebo (2 groups with 6 animals each; 3 male and 3 females per group).

plasma DPP IV [3] = target: T2, plasma DPP IV (Mus musculus, UniProt P28843); test: Inhibition of plasma DPP IV activity in vitro, mouse plasma; type: biochemical
T2 construct: from tissue; host or cells: mouse plasma
Experimental: (§1) Studies were also conducted to assess the inhibitory effect of this compound on plasma DPP IV activity in several species.

plasma DPP IV [4] = target: T3, plasma DPP IV (Homo sapiens, UniProt P27487); test: Inhibition of plasma DPP IV activity in vitro, human plasma; type: biochemical
T3 construct: from tissue; host or cells: human plasma
Experimental: as §1

T1 sequence (Q9N2I7 38-765 limits assumed): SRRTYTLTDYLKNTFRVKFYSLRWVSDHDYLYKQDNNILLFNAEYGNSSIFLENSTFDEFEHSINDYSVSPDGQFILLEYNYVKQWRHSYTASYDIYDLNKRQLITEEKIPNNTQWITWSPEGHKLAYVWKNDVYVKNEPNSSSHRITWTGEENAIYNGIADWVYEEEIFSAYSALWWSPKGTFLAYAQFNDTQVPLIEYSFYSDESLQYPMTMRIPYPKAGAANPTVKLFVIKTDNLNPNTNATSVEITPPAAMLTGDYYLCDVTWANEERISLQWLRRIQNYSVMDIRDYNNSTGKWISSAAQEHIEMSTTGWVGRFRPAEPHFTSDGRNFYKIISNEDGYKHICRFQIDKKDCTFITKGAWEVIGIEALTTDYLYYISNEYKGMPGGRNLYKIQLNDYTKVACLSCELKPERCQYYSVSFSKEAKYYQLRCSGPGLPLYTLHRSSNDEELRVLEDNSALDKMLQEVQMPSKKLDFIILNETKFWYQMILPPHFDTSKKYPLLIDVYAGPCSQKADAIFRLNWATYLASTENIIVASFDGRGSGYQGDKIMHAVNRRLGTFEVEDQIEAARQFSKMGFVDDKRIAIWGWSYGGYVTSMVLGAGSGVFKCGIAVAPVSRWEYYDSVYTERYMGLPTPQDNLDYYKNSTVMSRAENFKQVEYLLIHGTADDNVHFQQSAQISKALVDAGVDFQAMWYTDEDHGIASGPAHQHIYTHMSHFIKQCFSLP
T2 sequence (P28843 37-760 limits assumed): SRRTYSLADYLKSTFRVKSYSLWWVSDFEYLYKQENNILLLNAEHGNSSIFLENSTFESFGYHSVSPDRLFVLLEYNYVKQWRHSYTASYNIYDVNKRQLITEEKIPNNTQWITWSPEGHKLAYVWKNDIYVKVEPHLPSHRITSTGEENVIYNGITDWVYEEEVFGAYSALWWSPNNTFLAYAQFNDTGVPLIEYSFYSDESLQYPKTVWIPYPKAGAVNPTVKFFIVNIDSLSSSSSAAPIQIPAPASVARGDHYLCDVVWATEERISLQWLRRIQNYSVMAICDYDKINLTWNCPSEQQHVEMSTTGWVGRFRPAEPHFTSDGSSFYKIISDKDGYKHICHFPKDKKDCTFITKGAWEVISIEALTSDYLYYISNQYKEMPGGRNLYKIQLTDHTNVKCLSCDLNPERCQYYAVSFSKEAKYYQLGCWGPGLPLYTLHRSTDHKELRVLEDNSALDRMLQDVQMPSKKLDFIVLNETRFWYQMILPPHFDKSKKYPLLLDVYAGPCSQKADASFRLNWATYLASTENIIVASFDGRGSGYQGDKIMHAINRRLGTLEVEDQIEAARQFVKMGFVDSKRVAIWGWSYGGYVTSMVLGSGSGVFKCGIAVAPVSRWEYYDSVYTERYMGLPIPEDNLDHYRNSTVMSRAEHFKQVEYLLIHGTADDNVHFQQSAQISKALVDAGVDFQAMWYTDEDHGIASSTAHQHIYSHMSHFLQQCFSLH
T3 sequence (P27487 39-766 limits assumed): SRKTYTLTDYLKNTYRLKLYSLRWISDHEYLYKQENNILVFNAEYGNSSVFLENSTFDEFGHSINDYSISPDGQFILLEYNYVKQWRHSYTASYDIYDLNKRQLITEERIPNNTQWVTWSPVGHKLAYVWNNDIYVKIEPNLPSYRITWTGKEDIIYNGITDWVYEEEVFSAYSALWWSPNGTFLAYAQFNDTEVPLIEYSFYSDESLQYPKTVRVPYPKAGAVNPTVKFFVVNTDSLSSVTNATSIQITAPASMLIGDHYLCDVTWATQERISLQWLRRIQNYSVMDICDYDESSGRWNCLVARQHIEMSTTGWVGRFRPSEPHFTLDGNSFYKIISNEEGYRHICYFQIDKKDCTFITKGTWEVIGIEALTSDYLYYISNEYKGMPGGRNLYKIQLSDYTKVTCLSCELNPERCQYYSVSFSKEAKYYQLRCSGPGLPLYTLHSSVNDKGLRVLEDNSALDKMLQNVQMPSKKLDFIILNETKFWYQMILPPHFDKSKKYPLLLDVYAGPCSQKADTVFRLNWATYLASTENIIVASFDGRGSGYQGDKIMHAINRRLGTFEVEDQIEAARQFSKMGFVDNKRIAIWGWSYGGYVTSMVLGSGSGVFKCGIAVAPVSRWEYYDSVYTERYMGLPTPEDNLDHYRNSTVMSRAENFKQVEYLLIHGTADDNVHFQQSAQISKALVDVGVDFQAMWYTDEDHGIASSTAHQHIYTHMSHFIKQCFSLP

CC#CCn1c(N2CCC[C@@H](N)C2)nc2c1c(=O)n(Cc1ncccc1C#N)c(=O)n2C [1-[(3-cyano-pyridin-2-yl)methyl]-3-methyl-7-(2-butyn-1-yl)-8-[3-(R)-amino-piperidin-1-yl]-xanthine monohydrochloride]
response vs control in vivo at 0.3 mg/kg (DPP IV [1]; 0.5 h): 15%
response vs control in vivo at 0.3 mg/kg (DPP IV [1]; 1 h): 13%
response vs control in vivo at 0.3 mg/kg (DPP IV [1]; 2 h): 13%
response vs control in vivo at 0.3 mg/kg (DPP IV [1]; 4 h): 15%
response vs control in vivo at 0.3 mg/kg (DPP IV [1]; 8 h): 19%
response vs control in vivo at 0.3 mg/kg (DPP IV [1]; 24 h): 54%
response vs control in vivo at 0.3 mg/kg (DPP IV [1]; 36 h): 84%
response vs control in vivo at 0.3 mg/kg (DPP IV [1]; 48 h): 93%
response vs control in vivo at 0.3 mg/kg (DPP IV [1]; 72 h): 95%
response vs control in vivo at 0.3 mg/kg (DPP IV [1]; 96 h): 95%
response vs control in vivo at 1 mg/kg (DPP IV [1]; 0.5 h): 11%
response vs control in vivo at 1 mg/kg (DPP IV [1]; 1 h): 11%
response vs control in vivo at 1 mg/kg (DPP IV [1]; 2 h): 12%
response vs control in vivo at 1 mg/kg (DPP IV [1]; 4 h): 12%
response vs control in vivo at 1 mg/kg (DPP IV [1]; 8 h): 15%
response vs control in vivo at 1 mg/kg (DPP IV [1]; 24 h): 42%
response vs control in vivo at 1 mg/kg (DPP IV [1]; 36 h): 67%
response vs control in vivo at 1 mg/kg (DPP IV [1]; 48 h): 80%
response vs control in vivo at 1 mg/kg (DPP IV [1]; 72 h): 91%
response vs control in vivo at 1 mg/kg (DPP IV [1]; 96 h): 92%
response vs control in vivo at 3 mg/kg (DPP IV [1]; 0.5 h): 16%
response vs control in vivo at 3 mg/kg (DPP IV [1]; 1 h): 13%
response vs control in vivo at 3 mg/kg (DPP IV [1]; 2 h): 12%
response vs control in vivo at 3 mg/kg (DPP IV [1]; 4 h): 14%
response vs control in vivo at 3 mg/kg (DPP IV [1]; 8 h): 17%
response vs control in vivo at 3 mg/kg (DPP IV [1]; 24 h): 49%
response vs control in vivo at 3 mg/kg (DPP IV [1]; 36 h): 66%
response vs control in vivo at 3 mg/kg (DPP IV [1]; 48 h): 85%
response vs control in vivo at 3 mg/kg (DPP IV [1]; 72 h): 101%
response vs control in vivo at 3 mg/kg (DPP IV [1]; 96 h): 95%
inhibition of DPP IV (DPP IV [1]; all doses (0.3, 1.0, 3.0 mg/kg single oral)): more than 80%
response vs control in vivo at 0.01 mg/kg (DPP IV [2]; 0.5 h): 73%
response vs control in vivo at 0.01 mg/kg (DPP IV [2]; 1 h): 66%
response vs control in vivo at 0.01 mg/kg (DPP IV [2]; 2 h): 71%
response vs control in vivo at 0.01 mg/kg (DPP IV [2]; 4 h): 77%
response vs control in vivo at 0.01 mg/kg (DPP IV [2]; 8 h): 85%
response vs control in vivo at 0.01 mg/kg (DPP IV [2]; 12 h): 88%
response vs control in vivo at 0.01 mg/kg (DPP IV [2]; 24 h): 90%
response vs control in vivo at 0.01 mg/kg (DPP IV [2]; 36 h): 87%
response vs control in vivo at 0.01 mg/kg (DPP IV [2]; 48 h): 88%
response vs control in vivo at 0.01 mg/kg (DPP IV [2]; 72 h): 85%
response vs control in vivo at 0.01 mg/kg (DPP IV [2]; 96 h): 90%
response vs control in vivo at 0.1 mg/kg (DPP IV [2]; 0.5 h): 23%
response vs control in vivo at 0.1 mg/kg (DPP IV [2]; 1 h): 17%
response vs control in vivo at 0.1 mg/kg (DPP IV [2]; 2 h): 16%
response vs control in vivo at 0.1 mg/kg (DPP IV [2]; 4 h): 24%
response vs control in vivo at 0.1 mg/kg (DPP IV [2]; 8 h): 39%
response vs control in vivo at 0.1 mg/kg (DPP IV [2]; 12 h): 50%
response vs control in vivo at 0.1 mg/kg (DPP IV [2]; 24 h): 67%
response vs control in vivo at 0.1 mg/kg (DPP IV [2]; 36 h): 83%
response vs control in vivo at 0.1 mg/kg (DPP IV [2]; 48 h): 82%
response vs control in vivo at 0.1 mg/kg (DPP IV [2]; 72 h): 91%
response vs control in vivo at 0.1 mg/kg (DPP IV [2]; 96 h): 90%
response vs control in vivo at 1 mg/kg (DPP IV [2]; 0.5 h): 10%
response vs control in vivo at 1 mg/kg (DPP IV [2]; 1 h): 10%
response vs control in vivo at 1 mg/kg (DPP IV [2]; 2 h): 8%
response vs control in vivo at 1 mg/kg (DPP IV [2]; 4 h): 10%
response vs control in vivo at 1 mg/kg (DPP IV [2]; 8 h): 12%
response vs control in vivo at 1 mg/kg (DPP IV [2]; 12 h): 15%
response vs control in vivo at 1 mg/kg (DPP IV [2]; 24 h): 27%
response vs control in vivo at 1 mg/kg (DPP IV [2]; 36 h): 63%
response vs control in vivo at 1 mg/kg (DPP IV [2]; 48 h): 72%
response vs control in vivo at 1 mg/kg (DPP IV [2]; 72 h): 80%
response vs control in vivo at 1 mg/kg (DPP IV [2]; 96 h): 86%
GLP-1 increase compared to Placebo (GLP-1; 9 mg per cat oral, OGTT in normal cats): significantly higher compared to Placebo
GLP-1 concentration (GLP-1; 60 min after drug administration): 3.70 pmol/L
GLP-1 concentration (GLP-1; 65 min after drug administration): 3.92 pmol/L
GLP-1 concentration (GLP-1; 70 min after drug administration): 4.54 pmol/L
GLP-1 concentration (GLP-1; 75 min after drug administration): 7.28 pmol/L
GLP-1 concentration (GLP-1; 90 min after drug administration): 16.31 pmol/L
GLP-1 concentration (GLP-1; 120 min after drug administration): 26.93 pmol/L
GLP-1 concentration (GLP-1; 180 min after drug administration): 23.25 pmol/L
GLP-1 concentration (GLP-1; 240 min after drug administration): 14.45 pmol/L
GLP-1 concentration (GLP-1; 300 min after drug administration): 9.60 pmol/L
GLP-1 concentration (GLP-1; 360 min after drug administration): 6.04 pmol/L
IC50 (plasma DPP IV [3]): ~1.7 nM
IC50 (plasma DPP IV [4]): ~0.6 nM
